Patent US11497796B2, “Agents directed against a cis RGMa/neogenin interaction or lipid rafts and use of the same in methods of treatment” (UNIVERSITY HEALTH NETWORK, priority 2013, dated 2022)

B1: 4Ig: four immunoglobulin-like domains of Neogenin, amino acids 1 to 383 of Accession No. AAC59662 (SEQ ID NO:1) (protein, listed as Gallus gallus)
chain: RSGPRSPLTGSVVRTFTPFYFLVEPMDILSVRGASVIMNCSSYCETPPKIEWKKDGTLLNLVSDDRRQLLPDGSLLINSVVHSKHNKPDEGYYQCVATVESLGSIVSRTAKLTVAGLPRFTSQPELSSVYKGNSAILNCEVNVDLAPFVRWEQDRQPLSLDDRVFKLPSGALLIGNATDTDGGFYRCVIESGGTPKYSEEAELKILPDPEEPQSLVFVRQPSSLTKVTGQNAVFPCVAGGFPTPYVRWTKNGEELITEDSERFALRAGGSLLISDVTEEDVGTYTCIADNENETIEAQAELAVQVPPEFLKRPANIYAHESMDIVFECEVTGKPTPTVKWVKNGDVVIPSDYFKIVKEHNLQVLGLVKSDEGFYQCIAENDVGNAQAGAQLIILDLDVAIPTLPPTSLTSATNDHLAPATTGPLPTAPRDVVATLVSTRFIRLTWRTPVSDPQGDNLTYSIFYTKEGINRERVENTSRPGETQVMIQNLMPETVYVFRVVAQNKHGHGESSAPLKVATQPEVQLPGPAPNIRAYAGSPTSVTVTWETPLSGNGEIQNYKLYYMEKGQDSEQDVDVAGLSYTITGLKKYTEYSFRVVAYNKHGPGVSTQDVVVRTLSDVPSAAPQNLTLEARNSKSIMLHWQPPPAGTHSGQITGYKIRYRKVSRKSDVTESVGGTQLFQLIEGLERGTEYNFRIAAMTVNGTGPATDWVSAETFESDLDESRVPEVPSSLHVRPLVTSIVVSWTPPENQNIVVRGYAIGYGIGSPHAQTIKVDYKQRYYTIENLDPSSHYVITLKAFNNVGEGIPLYESAVTRPHSDTSEVDLFVINAPYTPVPDPSPMMPPVGVQASILSHDTIRITWADNSLPKNQKITDARYYTVRWKTNIPANTKYKTANATTLSYLVTGLKPNTLYEFSVMVTKGRRSSTWSMTAHGTTFELVPTSPPKDVTVVSKEGKPRTIIVNWQPPSEANGKITGYIIYYSTDVNAEIHDWVIEPVVGNRLTHQIQELTLDTPYYFKIQARNSKGMGPMSEAVQFRTPKAESSDKMPNDQASGSAGKGSRPVDVGPDYKPPLSGSNSPHGSPTSPLDSNMLLVIIVSVGVITIVIVVIVAVFCTRRTTSHQKKKRAACKSVNGSHKYKGNSKDVKPPDLWIHHERLELKPIDKSPDPNPIMTDTPIPRNSQDITPVDNSMDSNIHQRRNSYRGHESEDSMSTLAGRRGMRPKMMMPFDSQPPQPVISAHPIHSLDNPHHHFHSGSLASPTRSYLHHQVSPWPVGTSMSHSDRANSTESVRNTPSSDTMPASSSQPCADHQDPDSSSGAYLGSAQEEDAAQSLPTAHVRPSHPLKSFAVPAVPAAGSAYDPTLPSTPLLTQQAPSHPVHSVKTASIGTLGRTRPPMPVVVPSAPDVQETTRMLEDSESSYEPDELTKEMAHLEGLMKDLNAITTA
modifications: Neogenin - Accession No. AAC59662

Columns and labels:
[1] = test system: corticospinal tract axons; test: Spinal cord injury, anterograde axonal tracing of the corticospinal tract with BDA; type: in vivo, rat; conditions: for maximal distance of labeled fibers caudal to the lesion site: 4IG IV or MBCD IP; for average length of the longest axon: BDA tracing post-SCI, respective controls 18±7 and 128±118 μm
Description: To visualize axons from the CST, anterograde axonal tracing with BDA was performed 6 weeks after SCI following completion of the functional assessment. Animals (n=3-4) from each group were randomly selected for BDA injection. Under deep anesthesia with 2% isofluorane with 1:2 NO:O2, rats were positioned in a stereotaxic frame and craniotomy was performed bilaterally to expose the sensorimotor cortex. BDA (10%, 10,000 MW; Invitrogen (Life Technologies)) was dissolved in 0.01M PBS and injected at 6 sites in each sensorimotor cortex using the following coordinates in reference to bregma: 1) 0.5 mm posterior and 1 mm lateral, 2) 0.5 mm posterior and 2 mm lateral, 3) 1 mm posterior and 1 mm lateral, 4) 1 mm posterior and 2 mm lateral, 5) 1.5 mm posterior and 1 mm lateral, 6) 1.5 mm posterior and 2 mm lateral. At each site, 1 μl of BDA was injected 1.2 mm from the surface of the cortex. Injections were made stereotactically with the aid of an operating microscope using a motorized microinjector at a rate of 0.5 μl/min with a 10 μl Hamilton syringe and a 32-gauge needle. The needle was left in place for an additional 2 min after injection to prevent leakage and the skin was closed with 6-0 Vicryl. Animals were allowed to survive for 3 more weeks and then intracardially perfused with 4% paraformaldehyde in 0.1 M PBS. BDA tissue including a 1.5 cm segment of tissue encompassing the lesion site was excised and processed as either 20 μm cryosections on slides or free-floating 30 μm sections. Free-floating sections were collected in 24-well plates containing PBS. Sections were pre-treated with 1% H2O2 in methanol for 10 min at RT, rinsed with PBS containing 0.5% Triton X for 30 min, and incubated in avidin-biotin peroxidase complex (Vectostain Elite ABC Kit Standard, Vector Laboratories, Burlington, ON, Canada) for 1 h at RT. Slides were washed with PBS, and then incubated with fluorescent Alexa-488 goat anti-mouse secondary antibody (1:500; Invitrogen (Life Technologies)) for 1 h at RT and coverslipped with Vectashield mounting medium containing DAPI (4′, 6-diamidino-2-phenyl-indole) (Vector Laboratories, Burlington, Ontario, Canada) nuclear counterstain.

[2] = test system: RGC axons in injured optic nerve; test: Optic nerve crush, RGC axon regeneration (GAP-43) and intraretinal integrity; type: in vivo, rat; conditions: for intraretinal integrity of RGC axons (CTB-FITC): after optic nerve crush
Description: All animals were female Sprague-Dawley rats weighing 250-300 g, which were kept in a pathogen free environment. […] Injections were performed using a 10-μl Hamilton syringe actuated by a computer controlled Picopump (World Precision Instruments). […] The needle was left in place for 10 min after each injection and slowly withdrawn to prevent reflux of the injected solutions up the needle tract.
Additionally, for crushing nerve surgical procedures, animals were placed in a stereotaxic frame and ventilated with isoflurane (2%; 0.8 L/min O2) through a gas anesthesia mask. […] The optic nerve was crushed using fine self-closing forceps for 6 seconds. Eventually, the orbital contents were gently returned to their original location and the initial incision was closed. Following surgery, under a heat lamp, animal were maintained at 37° C. in the normothermic condition and they were given Ketoprofen (5 mg/mL, dosage for rats: 0.1 mL/100 g bodyweight) and sterile saline to ease postsurgical recovery.
In order to evaluate the effects of 4Ig, N-Raft, and MβCD on RGC survival and regeneration after optic nerve crush, 4 μl intraocular injection of 4Ig (250 ng/μl) and N-Raft (150 ng/μl) solutions were delivered at 3 and 10 days after injury. Additionally, these two groups received 4Ig and N-Raft in a dose of 1 mg/kg, via intrajugular vein at 3 and 10 days postcrush. Separately, animals in MβCD group, received intraperitoneal injection of MβCD at 1000 mg/kg/week for 3 weeks after nerve crush on a once-a-day schedule.
Firstly, RGC axon regeneration and intraretinal integrity was examined at twenty-one days after optic nerve crush. […]. CTB-FITC was anterogradly transported within the axon to reach the synaptic membrane.
RGC axon regeneration was examined at twenty-one days after optic nerve crush. Animals were perfused with 4% paraformaldehyde via the ascending aorta, while the descending aorta was clamped off, and the optic nerves were removed. The nerves were post-fixed overnight in the same fixative solution, plus 30% sucrose in PBS for 7 days at […]. The fixed nerves were consecutively sectioned at 14 μm in thickness with a Leica CM1950 cryostat microtome. The slides were first incubated overnight at 4° C. in primary antisera directed against growth associated protein-43 (GAP-43), a marker of regenerating retinal ganglion cell axons in both neonatal and adult RGCs. Primary antisera (rabbit polyclonal, 1:250, Cell Signaling Technology/NEB) were diluted in PBS containing 0.3% Triton X-100 and 3% normal goat serum. Following primary antibody incubation, sections were rinsed three times for 15 minutes in PBS and followed by three hours incubation with FITC labeled secondary antibody at room temperature.
The slides were then rinsed three times for 15 minutes in PBS before cover slipping with 50:50 glycerol/PBS. The total number of regenerating axon growth cones within bins of the optic nerve, beginning anterior to the crush site and proceeding distally, were quantified. The bins were as follows: 0-250, 250-500, and >500 μm. A total of four equally spaced sections through the width of each optic nerve were examined and quantified using a Leica DM LFSA microscope (20× objective) with an Andor iXon 885+ camera, with EMgain applied.

Row | Molecule | maximal distance of labeled fibers caudal to the lesion site [1] | average length of the longest axon [1] | average number of axons per section, 250-500 μm ([2]; IP injection) | average number of axons per section, greater than 500 μm ([2]; IP injection) | average number of axons per section, less than 250 μm ([2]; IP injection) | average number of axons per section higher than controls ([2]; IP injection, all distances) | intraretinal integrity of RGC axons (CTB-FITC) [2] | regeneration beyond the lesion site ([2]; 21 days after crush) | fiber length at 6 weeks compared to 4 weeks following injury ([1]; IV-injection) | increase in number of regenerating axons relative to controls ([2]; 21 days after crush) | number of regenerating axons, greater than 500 μm ([2]; 21 days after crush, controls 76±24) | number of regenerating axons, 250-500 μm ([2]; 21 days after crush, controls 108±12) | number of regenerating axons, less than 250 μm ([2]; 21 days after crush, controls 224±36)
1 | methyl-β-cyclodextrin [MβCD, reference compound] | about 4 mm | 2195±335 μm | 10.7±0.9 | 8.4±1.4 | 23.7±1.2 | 7.1 fold | thicker axon bundles throughout the retina |  |  |  |  |  | 
2 | N-Raft: peptide spanning amino acids 28-73 of RGMa (SEQ ID NO:2) (SPCKILKCNSEFWAATSGSHHLGAEETPEFCTALRAYAHCTRRTAR; N-Raft - amino acids 28-73 of RGMa) |  |  |  |  |  |  | thicker axon bundles throughout the retina | comparable to 4Ig |  |  |  |  | 
3 | B1 | about 4 mm | 2875±228 μm |  |  |  |  | thicker axon bundles throughout the retina |  | significantly longer at 6 weeks | 5.7 fold | 410±64 | 640±128 | 1134±68
